In BindingDB's records for doi:10.1021/jm060166w (University of Tours, 2006):

Target: 5-hydroxytryptamine receptor 1A (Sus scrofa)
Assay: Displacement of [3H]8-OH-DPAT from 5HT1A receptor in porcine cortical membrane

## Fc1ccc(N2CCN(Cc3cn4ccccc4n3)CC2)cc1 [2-[4-(4-fluorophenyl)piperazin-1-ylmethyl]imidazo[1,2-a]pyridine]
  Ki: 3.6 µM
